Results published in PubChem BioAssay (NCI).
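Cultured in 96-well plates, cells were exposed to test compound for 48 hours across five concentrations. GI50 = concentration required for 50% inhibition of growth. The concentration for full growth arrest is given as TGI.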

How the values were obtained:
Assay in all cases: NCI anticancer screen, dose series, 48 h
SK-MEL-5 melanoma = system: SK-MEL-5 melanoma
MCF7 breast = system: MCF7 breast
SK-MEL-2 melanoma = system: SK-MEL-2 melanoma
SF-539 CNS = system: SF-539 CNS
UACC-257 melanoma = system: UACC-257 melanoma
A498 renal = system: A498 renal
IGROV1 ovarian = system: IGROV1 ovarian
SK-MEL-28 melanoma = system: SK-MEL-28 melanoma
SNB-19 CNS = system: SNB-19 CNS
NCI-H226 lung = system: NCI-H226 lung

## O=C(c1ccco1)N(C(=S)OCc1ccccn1)c1ccccc1
SK-MEL-5 melanoma
  TGI: > 100 µM
MCF7 breast
  TGI: > 100 µM
SK-MEL-2 melanoma
  TGI: > 100 µM
SF-539 CNS
  TGI: > 100 µM
UACC-257 melanoma
  TGI: > 100 µM
A498 renal
  TGI: > 100 µM
IGROV1 ovarian
  TGI: > 100 µM
SK-MEL-28 melanoma
  TGI: > 100 µM
SNB-19 CNS
  TGI: > 100 µM
NCI-H226 lung
  TGI: > 100 µM

## COc1cccc(-c2nc3sccn3c2-c2ccnc(NCCNC(=O)Nc3cccc(C(F)(F)F)c3)n2)c1
SK-MEL-5 melanoma
  GI50: 4270 nM
  TGI: 15.9 µM
MCF7 breast
  GI50: 3.12 µM
  TGI: 13.3 µM
SK-MEL-2 melanoma
  GI50: 2030 nM
  TGI: 4.46 µM
SF-539 CNS
  GI50: 3830 nM
  TGI: 17.1 µM
UACC-257 melanoma
  GI50: 4340 nM
  TGI: 16.5 µM
A498 renal
  GI50: 2440 nM
  TGI: 17.5 µM
IGROV1 ovarian
  GI50: 3.32 µM
  TGI: 21.8 µM
SK-MEL-28 melanoma
  GI50: 5.36 µM
  TGI: 26.2 µM
SNB-19 CNS
  GI50: 7.77 µM
  TGI: > 100 µM
NCI-H226 lung
  GI50: 4.58 µM
  TGI: 68.6 µM

## CC[N+](CC)=c1ccc2nc3c(cc(N)c4ccccc43)oc-2c1
SK-MEL-5 melanoma
  GI50: 125 nM
  TGI: 0.27 µM
SK-MEL-2 melanoma
  GI50: 968 nM
  TGI: 2.25 µM
SF-539 CNS
  GI50: 174 nM
  TGI: 0.32 µM
UACC-257 melanoma
  GI50: 1560 nM
  TGI: 3.05 µM
SNB-19 CNS
  GI50: 0.318 µM
  TGI: 1.04 µM

## CCOC(=O)C(O)(NC(C)=O)C(F)(F)F (configuration not stated)
SK-MEL-5 melanoma
  TGI: > 100 µM
MCF7 breast
  TGI: > 100 µM
SK-MEL-2 melanoma
  TGI: > 100 µM
SF-539 CNS
  TGI: > 100 µM
UACC-257 melanoma
  TGI: > 100 µM
IGROV1 ovarian
  TGI: > 100 µM
SK-MEL-28 melanoma
  TGI: > 100 µM
SNB-19 CNS
  TGI: > 100 µM
NCI-H226 lung
  TGI: > 100 µM

## COc1cc(C2C3=C(COC3=O)OC(C)(C)Oc3cc4c(cc32)OCO4)cc(OC)c1OC (configuration not stated)
SK-MEL-5 melanoma
  TGI: 2.33 µM
MCF7 breast
  TGI: > 100 µM
SK-MEL-2 melanoma
  TGI: 70.1 µM
SF-539 CNS
  TGI: 0.582 µM
UACC-257 melanoma
  TGI: > 100 µM
A498 renal
  TGI: 1.49 µM
IGROV1 ovarian
  TGI: > 100 µM
SK-MEL-28 melanoma
  TGI: > 100 µM
NCI-H226 lung
  TGI: > 100 µM

## COC(=O)c1cncc2c1CC1C3(C(=O)OC)C=NC(C4C(CO)=CCC43)C21C (configuration not stated)
SK-MEL-5 melanoma
  TGI: > 100 µM
MCF7 breast
  TGI: > 100 µM
SK-MEL-2 melanoma
  TGI: > 100 µM
SF-539 CNS
  TGI: > 100 µM
UACC-257 melanoma
  TGI: > 100 µM
A498 renal
  TGI: > 100 µM
IGROV1 ovarian
  TGI: > 100 µM
SK-MEL-28 melanoma
  TGI: > 100 µM
SNB-19 CNS
  TGI: > 100 µM
NCI-H226 lung
  TGI: > 100 µM

## N#Cc1c2c(c(N3CCOCC3)n3c1nc1ccccc13)CCCC2
SK-MEL-5 melanoma
  TGI: 37 µM
MCF7 breast
  TGI: 87.1 µM
SK-MEL-2 melanoma
  TGI: 31.8 µM
SF-539 CNS
  TGI: 39.3 µM
UACC-257 melanoma
  TGI: 65.9 µM
A498 renal
  TGI: 34.5 µM
IGROV1 ovarian
  TGI: 34.9 µM
SK-MEL-28 melanoma
  TGI: 49.3 µM
SNB-19 CNS
  TGI: 32 µM
NCI-H226 lung
  TGI: 32.5 µM

## Cc1cc(S(=O)(=O)Nc2nnc3cc(C(F)(F)F)cc(C)n23)c(S)cc1Cl
SK-MEL-5 melanoma
  TGI: > 100 µM
MCF7 breast
  TGI: > 31.6 µM
SK-MEL-2 melanoma
  TGI: > 100 µM
SF-539 CNS
  TGI: > 96.6 µM
UACC-257 melanoma
  TGI: > 100 µM
A498 renal
  TGI: 37.2 µM
IGROV1 ovarian
  TGI: > 100 µM
SK-MEL-28 melanoma
  TGI: > 100 µM
SNB-19 CNS
  TGI: > 86.4 µM
NCI-H226 lung
  TGI: > 96.5 µM

## CCCCN(c1ccccc1)c1ncnc2c1cnn2C
SK-MEL-5 melanoma
  TGI: > 100 µM
MCF7 breast
  TGI: > 100 µM
SK-MEL-2 melanoma
  TGI: 78.1 µM
UACC-257 melanoma
  TGI: 95.8 µM
A498 renal
  TGI: 71.1 µM
IGROV1 ovarian
  TGI: > 100 µM
SK-MEL-28 melanoma
  TGI: > 100 µM
SNB-19 CNS
  TGI: > 100 µM
NCI-H226 lung
  TGI: > 100 µM

## O=C(O)c1ccc(Nc2nc3cc(C(F)(F)F)ccc3nc2C(=O)O)cc1
SK-MEL-5 melanoma
  TGI: > 100 µM
MCF7 breast
  TGI: > 100 µM
SK-MEL-2 melanoma
  TGI: > 100 µM
A498 renal
  TGI: > 100 µM
IGROV1 ovarian
  TGI: > 100 µM
SK-MEL-28 melanoma
  TGI: > 100 µM
SNB-19 CNS
  TGI: > 100 µM
NCI-H226 lung
  TGI: > 100 µM

## Cc1ccc2c(c1)OC1Nc3ccccc3C1=C2O (configuration not stated)
SK-MEL-5 melanoma
  TGI: 34 µM
MCF7 breast
  TGI: 45.9 µM
SK-MEL-2 melanoma
  TGI: 47.6 µM
SF-539 CNS
  TGI: 44.4 µM
UACC-257 melanoma
  TGI: 69.3 µM
A498 renal
  TGI: 45.5 µM
IGROV1 ovarian
  TGI: > 100 µM
SK-MEL-28 melanoma
  TGI: > 100 µM
SNB-19 CNS
  TGI: > 100 µM
NCI-H226 lung
  TGI: 89.1 µM

## COS(=O)c1cc(Cl)cc(Cl)c1O (configuration not stated)
SK-MEL-2 melanoma
  TGI: > 100 µM
SF-539 CNS
  TGI: > 100 µM
UACC-257 melanoma
  TGI: > 100 µM
A498 renal
  TGI: > 100 µM
SK-MEL-28 melanoma
  TGI: > 100 µM
SNB-19 CNS
  TGI: > 100 µM

## O=C1C=CC(=O)c2ncccc21
SK-MEL-5 melanoma
  TGI: 18 µM
MCF7 breast
  TGI: 25.8 µM
SK-MEL-2 melanoma
  TGI: 28.2 µM
SF-539 CNS
  TGI: 22.6 µM
UACC-257 melanoma
  TGI: 11.2 µM
A498 renal
  TGI: 27.4 µM
IGROV1 ovarian
  TGI: 17.6 µM
SK-MEL-28 melanoma
  TGI: 11.2 µM
SNB-19 CNS
  TGI: 19.1 µM
NCI-H226 lung
  TGI: 32.4 µM

## CCCCCCCCCCCCCCCCCCOCC(O)COP(=O)(O)OCC1OC(n2cc(F)c(=O)[nH]c2=O)CC1O (configuration not stated)
SK-MEL-5 melanoma
  TGI: 24.1 µM
MCF7 breast
  TGI: 48.3 µM
SK-MEL-2 melanoma
  TGI: 43.2 µM
SF-539 CNS
  TGI: 12.4 µM
UACC-257 melanoma
  TGI: 32.1 µM
A498 renal
  TGI: > 56 µM
IGROV1 ovarian
  TGI: 26.8 µM
SK-MEL-28 melanoma
  TGI: 28.8 µM
SNB-19 CNS
  TGI: 25.3 µM
NCI-H226 lung
  TGI: > 53.8 µM

## C=C1C[C@]23C[C@@]1(O)CC[C@H]2[C@@]12C=C[C@H](O)[C@@](C)(C(=O)O1)[C@H]2[C@@H]3C(=O)O
SK-MEL-5 melanoma
  TGI: > 100 µM
SK-MEL-2 melanoma
  TGI: > 100 µM
SF-539 CNS
  TGI: > 100 µM
UACC-257 melanoma
  TGI: > 100 µM
IGROV1 ovarian
  TGI: > 100 µM
SK-MEL-28 melanoma
  TGI: > 100 µM
SNB-19 CNS
  TGI: > 100 µM
NCI-H226 lung
  TGI: > 100 µM

## O=C(O)c1ccccc1/C=N\NC1=NCCCCN1
SK-MEL-5 melanoma
  TGI: > 100 µM
MCF7 breast
  TGI: > 100 µM
SK-MEL-2 melanoma
  TGI: > 100 µM
SF-539 CNS
  TGI: > 100 µM
UACC-257 melanoma
  TGI: > 100 µM
A498 renal
  TGI: > 100 µM
IGROV1 ovarian
  TGI: > 100 µM
SNB-19 CNS
  TGI: > 100 µM
NCI-H226 lung
  TGI: > 100 µM

## Nc1nc2c(ncn2C2C=CC(CO)O2)c(=O)[nH]1 (configuration not stated)
SK-MEL-5 melanoma
  TGI: > 100 µM
MCF7 breast
  TGI: > 100 µM
SK-MEL-2 melanoma
  TGI: > 100 µM
UACC-257 melanoma
  TGI: > 100 µM
A498 renal
  TGI: > 100 µM
SK-MEL-28 melanoma
  TGI: > 100 µM
SNB-19 CNS
  TGI: > 100 µM
NCI-H226 lung
  TGI: > 100 µM

## CSC1SCC2C(=O)N(C)C3(CC3C)C(=O)OCC(NC(=O)c3nc4ccccc4cc3O)C(=O)NC(C)C(=O)N(C)C1C(=O)N(C)C1(CC1C)C(=O)OCC(NC(=O)c1nc3ccccc3cc1O)C(=O)NC(C)C(=O)N2C (configuration not stated)
MCF7 breast
  TGI: 10.3 µM
SF-539 CNS
  TGI: < 0.0001 µM
UACC-257 melanoma
  TGI: < 0.0001 µM
A498 renal
  TGI: < 0.0001 µM
IGROV1 ovarian
  TGI: 0.281 µM
SK-MEL-28 melanoma
  TGI: < 0.0001 µM
SNB-19 CNS
  TGI: 6.9 µM
NCI-H226 lung
  TGI: < 0.0001 µM

## CSC(=NC1=NC(C(F)(F)F)(C(F)(F)F)N=C(c2ccccc2)O1)SC
SK-MEL-5 melanoma
  TGI: 33.1 µM
MCF7 breast
  TGI: 60.5 µM
SK-MEL-2 melanoma
  TGI: 55.9 µM
SF-539 CNS
  TGI: > 100 µM
UACC-257 melanoma
  TGI: 60.5 µM
A498 renal
  TGI: 51.6 µM
SK-MEL-28 melanoma
  TGI: > 100 µM
SNB-19 CNS
  TGI: > 100 µM
NCI-H226 lung
  TGI: 83.9 µM

## CCOC(=O)C(Cc1ccccc1)(Cc1ccc(O)cn1)NC(=O)c1ccccc1 (configuration not stated)
SK-MEL-5 melanoma
  TGI: 36.6 µM
MCF7 breast
  TGI: 51.5 µM
SK-MEL-2 melanoma
  TGI: 43.9 µM
SF-539 CNS
  TGI: 60.6 µM
UACC-257 melanoma
  TGI: 95 µM
IGROV1 ovarian
  TGI: 96.7 µM
SK-MEL-28 melanoma
  TGI: > 100 µM
SNB-19 CNS
  TGI: > 100 µM
NCI-H226 lung
  TGI: > 100 µM
